Laboratory results as given in patent US7084301B2 (Ranbaxy Laboratories Limited, priority 2003, dated 2006).

Legend:
[1] = target: T1, 5-HT1A receptors (Homo sapiens, UniProt P08908); conditions: reported, J. Med. Chem. 2000; cited from earlier work
T1 sequence (P08908 1-422): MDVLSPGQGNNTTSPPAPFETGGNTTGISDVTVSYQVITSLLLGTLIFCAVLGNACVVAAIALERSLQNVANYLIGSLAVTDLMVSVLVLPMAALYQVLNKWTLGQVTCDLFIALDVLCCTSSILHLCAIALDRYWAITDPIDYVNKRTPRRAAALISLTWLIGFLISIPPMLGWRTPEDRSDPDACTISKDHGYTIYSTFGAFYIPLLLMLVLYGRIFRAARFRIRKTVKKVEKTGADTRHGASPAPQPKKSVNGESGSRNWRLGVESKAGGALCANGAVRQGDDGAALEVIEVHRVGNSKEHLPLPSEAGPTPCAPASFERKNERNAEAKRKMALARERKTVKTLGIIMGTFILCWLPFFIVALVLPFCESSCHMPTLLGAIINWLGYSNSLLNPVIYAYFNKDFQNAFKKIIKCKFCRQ

[2] = target: T2, human α1A-adrenoceptors (Homo sapiens, UniProt P35348); test: Radioligand-receptor binding assay, human recombinant α1A-adrenoceptor, [3H]prazosin
T2 sequence (P35348 1-466): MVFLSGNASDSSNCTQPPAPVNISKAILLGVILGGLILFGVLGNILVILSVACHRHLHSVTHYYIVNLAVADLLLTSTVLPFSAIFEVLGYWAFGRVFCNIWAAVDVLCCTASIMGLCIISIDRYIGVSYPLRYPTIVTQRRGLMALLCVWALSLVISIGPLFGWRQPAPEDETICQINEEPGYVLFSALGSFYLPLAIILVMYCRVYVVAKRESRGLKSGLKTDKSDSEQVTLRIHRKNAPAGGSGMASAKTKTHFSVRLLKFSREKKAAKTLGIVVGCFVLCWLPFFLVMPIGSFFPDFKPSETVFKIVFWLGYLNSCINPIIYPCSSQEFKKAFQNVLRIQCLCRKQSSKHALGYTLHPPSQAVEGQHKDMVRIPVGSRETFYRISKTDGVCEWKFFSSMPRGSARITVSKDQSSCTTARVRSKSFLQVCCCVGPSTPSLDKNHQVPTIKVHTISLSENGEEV
Protocol: Chinese hamster ovary (CHO) cells which had been stably transfected with human α1A, α1B, or α1D-adrenoceptors (Keffel et al., Biochem. Biophys. Res. Commun., 2000, 272, 906–11) were cultured in an atmosphere of 5% CO2/95% air at 37° C. in F-12 HAM medium supplemented with 10% heat-inactivated fetal calf serum, 1 mM glutamine, 100 U/ml penicillin and 0.1 mg/ml streptomycin. Selection pressure was maintained by regular addition of geneticin to the culture medium.
Competitive radioligand binding to the cloned subtypes of […] was performed using [^3H]prazosin as the radioligand as described by Michel et al, Br. J. Pharmacol., 98, 883–889 (1989) with minor modifications. Experiments were performed in binding buffer consisting of 50 mM Tris, 10 mM MgCl2 and 0.5 mM EDTA at pH 7.5 in a total assay volume of 1000 μl. The protein content typically was 40–60 μg/assay. The mixtures were incubated at 25° C. for 45 minutes. Incubations were terminated by rapid vacuum filtration over GF/C filters followed by two washes of the filters each with 10 ml ice-cold incubation buffer. Non-specific binding was defined as binding in the presence of 10 μM phentolamine.
The IC50 & Kd were estimated by using the non-linear curve fitting program using G Pad Prism software. The value of inhibition constant Ki was calculated from competitive binding studies by using Cheng & Prusoff equation [Cheng & Prusoff, Biochem. Pharmacol., 22, 3099–3108 (1973)], Ki=IC50/(1+L/Kd), where L is the concentration of [^3H] prazosin used in the particular experiment. Kd of [^3H] prazosin was determined from saturation binding studies. The values were tabulated as mean±SEM of pKi values, where pKi is the −log of Ki value.

[3] = target: T3, rat α1D-adrenoceptor (aorta) (Rattus norvegicus, UniProt P23944); test: In-vitro functional study, agonist-induced contractile response on isolated rat aorta; type: biochemical
T3 sequence (P23944 1-561): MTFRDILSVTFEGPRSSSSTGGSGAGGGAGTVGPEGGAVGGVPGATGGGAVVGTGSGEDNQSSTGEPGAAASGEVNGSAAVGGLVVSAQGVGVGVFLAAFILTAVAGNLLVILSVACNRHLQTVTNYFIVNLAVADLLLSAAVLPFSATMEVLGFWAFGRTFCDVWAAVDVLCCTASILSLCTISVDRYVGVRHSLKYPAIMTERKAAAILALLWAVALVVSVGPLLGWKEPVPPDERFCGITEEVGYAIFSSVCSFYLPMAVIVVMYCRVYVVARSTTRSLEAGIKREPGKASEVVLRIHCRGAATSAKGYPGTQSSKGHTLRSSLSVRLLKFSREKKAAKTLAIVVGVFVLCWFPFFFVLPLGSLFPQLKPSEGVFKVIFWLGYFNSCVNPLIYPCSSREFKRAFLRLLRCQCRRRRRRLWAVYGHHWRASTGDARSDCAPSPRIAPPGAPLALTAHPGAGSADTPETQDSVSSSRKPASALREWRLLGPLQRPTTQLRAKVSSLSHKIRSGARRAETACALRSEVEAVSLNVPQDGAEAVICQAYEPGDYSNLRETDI
Protocol: Aorta, prostate and spleen tissues were isolated from urethane anaesthetized (1.5 gm/kg) male wistar rats. Isolated tissues were mounted in organ bath containing Krebs Henseleit buffer of following compostion (mM): NaCl 118; KCl 4.7; CaCl2 2.5; MgSO4.7H2O 1.2; NaHCO3 25; KH2PO4 1.2; glucose 11.5. Buffer was maintained at 37° C. and aerated with a mixture of 95% O2 and 5% CO2. A resting tension of 2 g (aorta) or 1 g (spleen and prostate) was applied to tissues. Contractile response was monitored using a force displacement transducer and recorded on chart recorders. Tissues were allowed to equilibrate for 2 hours. At the end of equilibration period, concentration response curves to norepinephrine (aorta) and phenylepinephrine (spleen and prostate) were obtained in absence and presence of tested compound (at concentrations of […]). Antagonist affinities were calculated and expressed as pKB vales in Table II.
To compare the differences in pKB at the α1-arenrenoceptor subtypes one-way ANOVA followed by Dunett ‘t’ test was applied. A p<0.05 was considered statistically significant.

Row | Compound | affinity for 5-HT1A receptors [1] | fold greater affinity for α1A-adrenoreceptor subtype than the corresponding (S)-isomer ([2]; human recombinant receptors) [fold] | Ki ([2]; human recombinant receptors in CHO cells, mean ± SEM, read-out: pKi α1A (converted)) [nM] | Kb [3] [nM]
1 | CCOc1ccccc1OCCNC(C)Cc1ccc(OC)c(S(N)(=O)=O)c1 (single isomer, unassigned; (-)) [Tamsulosin, (−) isomer of 5-[2-[2-(2-ethoxyphenoxy)ethylamino]-2-methylethyl]-2-methoxybenzene sulfonamide, reference compound] | subnanomolar affinity | – | – | –
2 | CCOc1ccccc1OCCN[C@H](C)Cc1ccc(O)c(S(N)(=O)=O)c1 [Formula I, R (−)-5-[2-[[2-(2-ethoxyphenoxy)ethyl]amino]propyl]-2-hydroxybenzenesulfonamide] | – | 102 | 0.0219 | 0.00589
